Among the data in ChEMBL document CHEMBL1130483, “The synthesis and evaluation of functionalized estratropones: Potent inhibitors of tubulin polymerization” (Bioorg Med Chem Lett, 1997) are IC50 values, retold here.

The structures appear in SMILES notation.

The test concerns the target Tubulin (Bos taurus, UniProt Q6B856+Q862L2+Q862F3). Nature of the test: Compound was evaluated for inhibition of tubulin polymerization using purified bovine brain tubulin, activity expressed as IC50. Format: functional, tissue-based.
The term IC50 denotes the point on the concentration scale where inhibition reaches its midpoint. The low end stands for greater potency in that assay, the high end for weaker potency in that assay. In turn, `CN(C)c1ccc2c(cc1=O)CC[C@@H]1[C@@H]2CC[C@]2(C)[C@@H](O)CC[C@@H]12` yielded an IC50 of 14.3 µM.
As to `C[C@]12CC[C@@H]3c4ccc([N+](=O)[O-])c(=O)cc4CC[C@H]3[C@@H]1CC[C@@H]2O`, the IC50 was 52 µM.
Under `C[C@]12CC[C@@H]3c4cc(N)c(=O)ccc4CC[C@H]3[C@@H]1CC[C@@H]2O` stands 16.5 µM; under `C[C@]12CC[C@@H]3c4cc(O)c(=O)ccc4CC[C@H]3[C@@H]1CC[C@@H]2O`, 14.9 µM; under `C[C@]12CC[C@@H]3c4ccc(=O)c(O)cc4CC[C@H]3[C@@H]1CC[C@@H]2O`, 22.8 µM.
`C/N=c1\ccc2c(cc1O)CC[C@@H]1[C@@H]2CC[C@]2(C)[C@@H](O)CC[C@@H]12` gave an IC50 of 60.7 µM.
With `C[C@]12CC[C@@H]3c4ccc(=N)c(O)cc4CC[C@H]3[C@@H]1CC[C@@H]2O` the figure was 14.4 µM; with `CN(C)c1cc2c(ccc1=O)[C@H]1CC[C@]3(C)[C@@H](O)CC[C@H]3[C@@H]1CC2`, 46.8 µM.
Regarding `C[C@]12CC[C@@H]3c4ccc(=O)c(N)cc4CC[C@H]3[C@@H]1CC[C@@H]2O`, the IC50 was 9.2 µM.
Under `C=Cc1ccc2c(cc1=O)CC[C@@H]1[C@@H]2CC[C@]2(C)[C@@H](O)CC[C@@H]12` stands 14.2 µM; under `C/N=c1/cc2c(ccc1O)[C@H]1CC[C@]3(C)[C@@H](O)CC[C@H]3[C@@H]1CC2`, 19.4 µM.
